Data on 34 compounds can be found in patent US20240131007A1, “METHODS AND COMPOSITIONS FOR PICORNAVIRUS ANTI-VIRAL AGENTS” (University of Connecticut, priority 2022, published 2024).

Like-named read-outs stand apart in the source and are kept apart here. Bounds are passed on as bounds.

Data set [1] is described as follows: in vitro. As to conditions: African green monkey, CC50 (μM).
The test system of data set [2] is EV-A71. Kind of data set: CPE inhibition assay (Cell Titer Glo) against EV-A71 in Vero cells. Format: cell-based, Enterovirus A71. As to conditions: for IC50: Enterovirus A, EVA71, EV-A71, Vero cells; for Selectivity Index: CC50/IC50. Background: In ATP-based viability assays light output follows the ATP content of the culture.
Setting [3] is: Table 10, Scaffold 1, read-out: IC50.
Where [4] appears, read: Table 8, virus-induced CPE, read-out: IC50.

In general, IC50 refers to the concentration that inhibits the measured activity by half. In data set [1], `CC(=O)Nc1ccc(-c2nc3ccccc3[nH]2)cc1` [Compound 1, N-[4-(1H-benzimidazol-2-yl)phenyl]acetamide] showed a CC50 at 3 days above 400 µM. The IC50 in data set [2] (setting [3]) is above 25 µM.

Take `O=C(Nc1ccc(-c2nc3ccccc3[nH]2)cc1)C1CC1` [Compound 2, N-[4-(1H-benzimidazol-2-yl)phenyl]cyclopropanecarboxamide]: in data set [1], the CC50 at 3 days was 148 µM. Moreover, the IC50 in data set [2] (setting [3]) was 39.3 µM. In data set [2] (Table 10, Scaffold 1), the “Selectivity Index” value was found to be 3.77.

In data set [1], `CC(=O)Nc1ccc(C(=O)Nc2ccc(-c3nc4ccccc4[nH]3)cc2)cc1` [Compound 3, 4-(acetylamino)-N-[4-(1H-benzimidazol-2-yl)phenyl]benzamide] had a CC50 at 3 days above 400 µM. In addition, the IC50 in data set [2] (setting [3]) was above 25 µM.

As for `CC(=O)Oc1ccc(C(=O)Nc2ccc(-c3nc4ccccc4[nH]3)cc2)cc1` [Compound 4, 4-({[4-(1H-benzimidazol-2-yl)phenyl]amino}carbonyl)phenyl acetate], in data set [1], the CC50 at 3 days was 119 µM. For the same compound, the IC50 in data set [2] (setting [3]) stood at 34.2 µM. The “Selectivity Index” value in data set [2] (Table 10, Scaffold 1) turned out to be 3.49.

As to `Cc1ccc2[nH]c(-c3ccc(NC(=O)CCC(=O)O)cc3)nc2c1` [Compound 5, 4-{[4-(5-methyl-1H-benzimidazol-2-yl)phenyl]amino}-4-oxobutanoic acid], the CC50 at 3 days in data set [1] was above 400 µM. For the same compound, the IC50 in data set [2] (setting [3]) was above 25 µM.

`O=C(Nc1ccc(-c2nc3ccccc3[nH]2)cc1)c1ccccc1` [Compound 6, N-[4-(1H-benzimidazol-2-yl)phenyl]benzamide] came in with a CC50 at 3 days in data set [1] of 13.7 µM. The half-maximal inhibitory concentration (IC50) in data set [2] (setting [3]) was 30.8 µM. Moreover, the “Selectivity Index” value in data set [2] (Table 10, Scaffold 1) came out at 0.45.

Compound `O=C(Cc1ccccc1)Nc1ccc(-c2nc3ccccc3[nH]2)cc1` [Compound 7, N-[4-(1H-benzimidazol-2-yl)phenyl]-2-phenylacetamide] showed a CC50 at 3 days in data set [1] above 400 µM. For the same compound, the IC50 in data set [2] (setting [3]) is above 25 µM.

Turning to `O=C(Nc1ccc(-c2nc3ccccc3[nH]2)cc1)c1ccccn1` [Compound 8, N-[4-(1H-benzimidazol-2-yl)phenyl]-2-pyridinecarboxamide], the CC50 at 3 days in data set [1] is 244 µM. Also, the concentration for half-maximal inhibition (IC50) in data set [2] (setting [4]) was determined as 1.46 µM. The “Selectivity Index” value in data set [2] (Table 8) turned out to be 167.19; in data set [2] (Table 10, Scaffold 1) it was 167.19.

`O=C(Nc1ccc(-c2nc3ccccc3[nH]2)cc1)c1cccs1` [Compound 10, N-[4-(1H-benzimidazol-2-yl)phenyl]-2-thiophenecarboxamide]: the CC50 at 3 days in data set [1] was determined as 210 µM. Besides, the IC50 in data set [2] (setting [4]) was determined as 5 µM. Further, the “Selectivity Index” value in data set [2] (Table 8) amounted to 42.06; in data set [2] (Table 10, Scaffold 1), 42.06.

With `O=C(Nc1ccc(-c2nc3ccccc3[nH]2)cc1)c1ccc(Br)o1` [Compound 11, N-[4-(1H-benzimidazol-2-yl)phenyl]-5-bromo-2-furamide], the CC50 at 3 days in data set [1] is 1650 µM. Also, the IC50 in data set [2] (setting [3]) was found to be 252 µM. In addition, in data set [2] (Table 10, Scaffold 1), the “Selectivity Index” value was determined as 6.54.

In data set [1], `O=C(Nc1ccc(-c2nc3ccccc3[nH]2)cc1)c1ccccc1F` [Compound 13, N-[4-(1H-benzimidazol-2-yl)phenyl]-2-fluorobenzamide] yielded a CC50 at 3 days of 98.1 µM. The IC50 in data set [2] (setting [3]) was above 25 µM.

`O=C(Nc1ccc(-c2nc3ccccc3[nH]2)cc1)c1ccc(F)cc1` [Compound 14, N-[4-(1H-benzimidazol-2-yl)phenyl]-4-fluorobenzamide] registered a CC50 at 3 days in data set [1] of 133 µM. Moreover, the IC50 in data set [2] (setting [3]) was above 25 µM.

On to `O=C(Nc1ccc(-c2nc3ccccc3[nH]2)cc1)c1cccc(F)c1` [Compound 15, N-[4-(1H-benzimidazol-2-yl)phenyl]-3-fluorobenzamide], for which the CC50 at 3 days in data set [1] was 29.2 µM. In data set [2] (setting [3]), the IC50 was above 25 µM.

`O=C(Nc1ccc(-c2nc3ccccc3[nH]2)cc1)C1CCCC1` [Compound 17, N-[4-(1H-benzimidazol-2-yl)phenyl]cyclopentanecarboxamide]: the CC50 at 3 days in data set [1] was determined as 266 µM. For the same compound, in data set [2] (setting [3]), the IC50 is 13.4 µM. In addition, the “Selectivity Index” value in data set [2] (Table 10, Scaffold 1) was 19.91.

In data set [1], `O=C(Nc1ccc(-c2nc3ccccc3[nH]2)cc1)c1ccc(N2CCOCC2)c([N+](=O)[O-])c1` [Compound 18, N-[4-(1H-benzimidazol-2-yl)phenyl]-4-(4-morpholinyl)-3-nitrobenzamide] had a CC50 at 3 days of 11.1 µM. In addition, in data set [2] (setting [3]), the IC50 is above 25 µM.

The compound `O=C(Nc1ccc(-c2nc3ccccc3[nH]2)cc1)c1cc([N+](=O)[O-])ccc1N1CCOCC1` [Compound 19, N-[4-(1H-benzimidazol-2-yl)phenyl]-2-(4-morpholinyl)-5-nitrobenzamide] came in with a CC50 at 3 days in data set [1] of 2090 µM. Moreover, the IC50 in data set [2] (setting [3]) amounted to 7.28 µM. In addition, the “Selectivity Index” value in data set [2] (Table 10, Scaffold 1) stood at 287.50.

`O=C(CSCc1ccc([N+](=O)[O-])cc1)Nc1ccc(-c2nc3ccccc3[nH]2)cc1` [Compound 21, N-[4-(1H-benzimidazol-2-yl)phenyl]-2-[(4-nitrobenzyl)thio]acetamide]: in data set [1], the CC50 at 3 days is above 400 µM. For the same compound, in data set [2] (setting [3]), the IC50 was above 25 µM.

Compound `O=C(Nc1ccc(-c2nc3ccccc3[nH]2)cc1)c1ccc(-c2cccc([N+](=O)[O-])c2)o1` [Compound 23, N-[4-(1H-benzimidazol-2-yl)phenyl]-5-(3-nitrophenyl)-2-furamide] gave a CC50 at 3 days in data set [1] of 1.14 µM. For the same compound, the IC50 in data set [2] (setting [3]) was above 25 µM.

As for `O=C(Cc1cccc2ccccc12)Nc1ccc(-c2nc3ccccc3[nH]2)cc1` [Compound 24, N-[4-(1H-benzimidazol-2-yl)phenyl]-2-(1-naphthyl)acetamide], the CC50 at 3 days in data set [1] is 58.8 µM. Further, the IC50 in data set [2] (setting [3]) came out at 8.34 µM. For the same compound, the “Selectivity Index” value in data set [2] (Table 10, Scaffold 1) is given as 7.05.

In the case of `O=C(Nc1ccc(-c2nc3ccccc3[nH]2)cc1)c1ccc(-c2ccc(Cl)cc2)o1` [Compound 26, N-[4-(1H-benzimidazol-2-yl)phenyl]-5-(4-chlorophenyl)-2-furamide], the CC50 at 3 days in data set [1] is 44.3 µM. Besides, in data set [2] (setting [3]), the concentration for half-maximal inhibition (IC50) amounted to 5.7 µM. In addition, the “Selectivity Index” value in data set [2] (Table 10, Scaffold 1) was determined as 7.77.

For the compound `O=C(Nc1ccc(-c2nc3ccccc3[nH]2)cc1)c1ccc(-c2cccc(Cl)c2)o1` [Compound 27, N-[4-(1H-benzimidazol-2-yl)phenyl]-5-(3-chlorophenyl)-2-furamide], in data set [1], the CC50 at 3 days is 67.6 µM. Further, the IC50 in data set [2] (setting [3]) was 5.85 µM. The “Selectivity Index” value in data set [2] (Table 10, Scaffold 1) was determined as 11.56.

In data set [1], `CC(=O)Nc1ccc(-c2nc3cc(C)ccc3[nH]2)cc1` [Compound 29, N-[4-(5-methyl-1H-benzimidazol-2-yl)phenyl]acetamide] gave a CC50 at 3 days above 400 µM. In data set [2] (setting [3]), the IC50 amounted to 69.3 µM. Also, the “Selectivity Index” value in data set [2] (Table 10, Scaffold 1) was above 5.77.

For the compound `CC(=O)Nc1ccc(-c2nc3ccc(Cl)cc3[nH]2)cc1` [Compound 30, N-[4-(6-chloro-1H-benzimidazol-2-yl)phenyl]acetamide], the CC50 at 3 days in data set [1] is above 400 µM. For the same compound, the IC50 in data set [2] (setting [3]) was above 25 µM.

In data set [1], `Cc1ccc2[nH]c(-c3ccc(NC(=O)C4CC4)cc3)nc2c1` [Compound 31, N-[4-(5-methyl-1H-benzimidazol-2-yl)phenyl]cyclopropanecarboxamide] gave a CC50 at 3 days above 400 µM. Moreover, the IC50 in data set [2] (setting [3]) amounted to 9.6 µM. Also, the “Selectivity Index” value in data set [2] (Table 10, Scaffold 1) is on record as above 41.67.

Compound `CCC(=O)Nc1ccc(-c2nc3ccc(Cl)cc3[nH]2)cc1` [Compound 32, N-[4-(6-chloro-1H-benzimidazol-2-yl)phenyl]propanamide] gave a CC50 at 3 days in data set [1] above 400 µM. In addition, the IC50 in data set [2] (setting [3]) is above 25 µM.

For `Cc1ccc2[nH]c(-c3ccc(NC(=O)C(C)C)cc3)nc2c1` [Compound 33, 2-methyl-N-[4-(5-methyl-1H-benzimidazol-2-yl)phenyl]propanamide], the CC50 at 3 days in data set [1] is 468 µM. For the same compound, the IC50 in data set [2] (setting [3]) came out at 11.8 µM. The “Selectivity Index” value in data set [2] (Table 10, Scaffold 1) stood at 39.46.

The compound `Cc1ccc2[nH]c(-c3ccc(NC(=O)C(F)(F)F)cc3)nc2c1` [Compound 34, 2,2,2-trifluoro-N-[4-(5-methyl-1H-benzimidazol-2-yl)phenyl]acetamide] showed a CC50 at 3 days in data set [1] of 618 µM. Further, the IC50 in data set [2] (setting [3]) is above 25 µM.

`Cc1ccc2[nH]c(-c3ccc(NC(=O)COc4ccccc4)cc3)nc2c1` [Compound 38, N-[4-(5-methyl-1H-benzimidazol-2-yl)phenyl]-2-phenoxyacetamide] gave a CC50 at 3 days in data set [1] above 400 µM. For the same compound, the IC50 in data set [2] (setting [3]) is above 25 µM.

`Cc1ccc2[nH]c(-c3ccc(NC(=O)Cc4ccccc4)cc3)nc2c1` [Compound 39, N-[4-(5-methyl-1H-benzimidazol-2-yl)phenyl]-2-phenylacetamide] gave a CC50 at 3 days in data set [1] above 400 µM. In data set [2] (setting [3]), the IC50 was above 25 µM.

In data set [1], `Cc1ccc(OCC(=O)Nc2ccc(-c3nc4cc(C)ccc4[nH]3)cc2)cc1` [Compound 41, N-[4-(5-methyl-1H-benzimidazol-2-yl)phenyl]-2-(4-methylphenoxy)acetamide] registered a CC50 at 3 days above 400 µM. Further, the IC50 in data set [2] (setting [3]) is above 25 µM.

As for `O=C(c1ccccc1)c1ccc2[nH]c(-c3ccc(NC(=O)c4ccco4)cc3)nc2c1` [Compound 45, N-[4-(5-benzoyl-1H-benzimidazol-2-yl)phenyl]-2-furamide], in data set [1], the CC50 at 3 days stood at 59.1 µM. Moreover, in data set [2] (setting [4]), the IC50 is 4.71 µM. The “Selectivity Index” value in data set [2] (Table 8) is given as 12.56; in data set [2] (Table 10, Scaffold 1), 12.56.

As for `CC(=O)Nc1ccc(-c2nc3cc4ccccc4cc3[nH]2)cc1` [Compound 47, N-[4-(1H-naphtho[2,3-d]imidazol-2-yl)phenyl]acetamide], the CC50 at 3 days in data set [1] was found to be 477 µM. In addition, the IC50 in data set [2] (setting [4]) was determined as 4.22 µM. In addition, the “Selectivity Index” value in data set [2] (Table 8) came to 113.08; in data set [2] (Table 11, Scaffold 2), 113.08.

In data set [1], `O=C(CCc1ccccc1)Nc1ccc(-c2nc3cc4ccccc4cc3[nH]2)cc1` [Compound 49, N-[4-(1H-naphtho[2,3-d]imidazol-2-yl)phenyl]-3-phenylpropanamide] returned a CC50 at 3 days of 154 µM. Also, in data set [2] (Table 11, Scaffold 2, read-out: IC50), the IC50 is 22.1 µM. The “Selectivity Index” value in data set [2] (Table 11, Scaffold 2) was determined as 6.99.

As to `CCCCOc1cc(C(=O)NCCN(CC)CC)c2ccccc2n1` [Dibucaine, reference compound], the IC50 in data set [2] (read-out: IC50 for inhibition of virus-induced CPE) turned out to be 4.5 µM.
